In data set [1] the test system is AIDS or AIDS-related complex (ARC). To be noted: clinical; cited from earlier work.
For data set [2] the following is noted: cited from earlier work.
For data set [3] the following is noted: in vivo, cited from earlier work.
In data set [4] the test system is T cell levels. The conditions noted are these: 13 AIDS patients with perpetually swollen glands; cited from earlier work.
The test system of data set [5] is HIV. To be noted: clinical; cited from earlier work.
Data set [6] has as its system HIV reverse transcriptase. To be noted: cited from earlier work.
Data set [7] has as its system Pseudomonas aeruginosa. Briefly: In vivo immunopotentiation against challenge with lethal doses of Pseudomonas aeruginosa, cyclophosphamide-immunocompromised mouse. Details: species or system mouse (random outbred albino CFl female). The conditions noted are these: 250 mg/kg cyclophosphamide i.p., 4 days prior to challenge. The protocol: An immunocompromised mouse model, established by intraperitoneal treatment of random outbred albino CFl female mice (ca. 25g) with 250 mg/kg body weight of cyclophosphamide (CY) 4 days Prior to bacterial challenge with Pseudomonas aeruginosa, was used as the assay system. In this model, test compounds were injected only once (2 hours) after CY treatment. After bacterial challenge, LD50 's (50% lethal doses) were determined. Increased LD50 's in treated mice over controls indicated a return to normality. The LD50 for untreated or vehicle-treated mice was routinely 10^6 -10^7 colony forming units (CFU) of P. aeruginosa organisms. After CY treatment, the LD50 was reduced to 10^1 to 10^2 CFU's. The protection afforded by test compound (Protective Index) was determined by calculating the number of LD50 's of protection of treated animals over the LD50 of CY controls.

In data set [8] the test system is reverse transcriptase in several retroviruses. To be noted: in vitro; cited from earlier work.
In data set [9] the test system is HIV. To be noted: cited from earlier work.
In data set [10] the test system is AIDS-related Kaposi's sarcoma. To be noted: some AIDS-related Kaposi's sarcoma cases; cited from earlier work.

Entries after “also recorded” stand apart in the source; their conditions may differ. Like-named read-outs stand apart in the source and are kept apart here.

`CO[C@H]1/C=C/O[C@@]2(C)Oc3c(C)c(O)c4c(c3C2=O)C2=NC3(CCN(CC(C)C)CC3)NC2=C(NC(=O)/C(C)=C\C=C\[C@H](C)[C@H](O)[C@@H](C)[C@@H](O)[C@@H](C)[C@H](OC(C)=O)[C@@H]1C)C4=O` [Ansamycin, rifabutin]: the “efficacy in AIDS or ARC patients” value in data set [1] is listed as “some efficacy in treating AIDS patients with an opportunistic infection caused by the bacterium Mycobacterium aviumintracellulare”.

Consider `Cc1cn([C@H]2C[C@H](N=[N+]=[N-])[C@@H](CO)O2)c(=O)[nH]c1=O` [Azidothymidine, 3'-azido-3'-deoxythymidine], for which the “adverse / toxic effects in humans” value in [2] (clinical) is “some toxicity, with anemia and headaches”. In addition, the oral absorption result in data set [3] (po) was “Well absorbed orally”. Besides, in [3], the “half-life in the body” value was “relatively short half-life” and the “penetration of central nervous system” value is on record as “effectively penetrates central nervous system”. Besides, in data set [1], the “efficacy in AIDS or ARC patients” value is “promise in prolonging lives of patients with AIDS or AIDS-related complex (ARC)”.

Turning to `CC(C)(N1CC1C#N)N1CC1C(N)=O` (stereo not shown) [Azimexon], the “adverse / toxic effects in humans” value in [2] (clinical) is “only toxic effect was mild hemolysis”. In [1], the “efficacy in AIDS or ARC patients” value is “improvements in symptoms and immune function in patients with ARC but not AIDS”.

As to `CC(C)(S)[C@@H](N)C(=O)O` [D-Penicillamine, 3-mercapto-D-valine], the “effect on T cell levels” value in data set [4] is “temporarily depressed T cell levels”. For the same compound, the “effect on HIV reproduction / viral replication in humans” value in [5] is given as “Inhibits HIV reproduction in humans; also recorded: suppressed the virus”.

With `O=C(O)P(=O)(O)O` [Foscarnet, trisodium phosphonoformate], the “adverse / toxic effects in humans” value in data set [2] (in vivo) is “serious side effects”. The “inhibition of HIV reverse transcriptase” value in [6] is “Inhibits HIV reverse transcriptase activity in vitro at levels pharmacologically acceptable in vivo”.

Take `CC(=O)Nc1ccc(C(=O)O)cc1.CC(=O)Nc1ccc(C(=O)O)cc1.CC(=O)Nc1ccc(C(=O)O)cc1.CC(O)CN(C)C.CC(O)CN(C)C.CC(O)CN(C)C.O=c1[nH]cnc2c1ncn2[C@@H]1O[C@H](CO)[C@@H](O)[C@H]1O` [Inosine pranobex, p-Acetamidobenzoic acid salt of dimethylaminoisopropanol: inosinate complex]: in data set [1], the “effect on immune function in patients” value is “improve immune function in ARC patients”.

Take `NC(=O)c1ncn([C@@H]2O[C@H](CO)[C@@H](O)[C@H]2O)n1` [Ribavirin, 1-β-D-ribofuranosyl-1,2,4-triazole-3-carboxamide]: in [2] (in vivo), the safety profile entry was “acceptable” and the tolerability result is “well tolerated”. Besides, in [5], the “effect on HIV reproduction / viral replication in humans” value is “inhibited viral replication”. The “effect on immune function in patients” value in [1] was “improved immune function in AIDS patients”.

As to `Cc1ccc(C(=O)Nc2ccc(S(=O)(=O)O)c3cc(S(=O)(=O)O)cc(S(=O)(=O)O)c23)cc1NC(=O)c1cccc(NC(=O)Nc2cccc(C(=O)Nc3cc(C(=O)Nc4ccc(S(=O)(=O)O)c5cc(S(=O)(=O)O)cc(S(=O)(=O)O)c45)ccc3C)c2)c1` [Suramin], in data set [6], the “inhibition of HIV reverse transcriptase” value is “Potent inhibitor of HIV reverse transcriptase”. Also, the “efficacy in AIDS or ARC patients” value in [1] is “little or no evidence of clinical improvement or immunologic recovery”.

In the case of `O=P1(N(CCCl)CCCl)NCCCO1` (stereo not shown) [cyclophosphamide], the “LD50 of P. aeruginosa after CY treatment” value in [7] is given as 10^1 to 10^2 CFU.

Take “ammonium 21-tungsto-9-antimoniate [HPA-23]”: the “inhibition of reverse transcriptase in several retroviruses” value in data set [8] is on record as “Inhibits reverse transcriptase in several retroviruses in vitro”. The “efficacy in AIDS or ARC patients” value in data set [1] is on record as “no therapeutic benefit has been documented in AIDS patients”. The “effect on HIV infectivity / growth” value in data set [9] is “some tendency to check the growth of HIV”.

For α-Interferon, in data set [10], the tumor regression result was “induced tumor regression in some AIDS-related Kaposi's sarcoma cases”. Further, in data set [9], the “effect on HIV infectivity / growth” value is reported as “Checks the growth of HIV in vitro”.

Source of the values: patent publication US4923852A, “Aminoalkyl naphthalenediols as host resistance enhancers against viral infections” (Merck & Co., Inc., priority 1987, dated 1990).
